Reference: patent US6476263B1, “Compounds for inhibiting β-amyloid peptide release and/or its synthesis” (Elan Pharmaceuticals, Inc., priority 1996, dated 2002)
Residues, ends and D or L forms follow the SMILES beside them. *: point of attachment. PhAc = O=C(Cc1ccccc1)*; Boc = CC(C)(C)OC(=O)*

Row | SMILES | melting point [°C]
1 | COC(=O)C(NC(=O)[C@H](C)NC(=O)Cc1cc(F)cc(F)c1)c1csc2ccccc12 (stereo partly drawn) [Example 175, Methyl N-[N-(3,5-Difluorophenylacetyl)-L-alaninyl]-2-amino-2-(benzothiophen-3-yl)acetate] | 185 to 186
2 | CC(C)COC(=O)[C@H](C)NC(=O)[C@H](Cc1ccccc1)NC(=O)CC(C)C [Example 84, N-[N-(Isovaleryl)-L-phenylalaninyl]-L-alanine iso-butyl Ester] | 135 to 138
3 | COC(=O)[C@H](Cc1ccccc1)NC(=O)[C@H](C)NC(=O)Cc1cccnc1 [Example 131, N-[N-(3-Pyridylacetyl)-L-alaninyl]-L-phenylalanine Methyl Ester] | 150 to 152
4 | C[C@H](NC(=O)Cc1cc(F)cc(F)c1)C(=O)N[C@@H](Cc1ccccc1)C(=O)OCCCBr [Example 38, N-[N-(3,5-Difluorophenylacetyl)-L-alaninyl]-L-phenylalanine 3-Bromopropyl Ester] | 138 to 142
5 | COC(=O)C(NC(=O)[C@H](C)NC(=O)Cc1cc(F)cc(F)c1)c1cccc(C(F)(F)F)c1 (stereo partly drawn) [Example 183, Methyl N-[N-(3,5-Difluorophenylacetyl)-L-alaninyl]-2-amino-2-(3-trifluoromethylphenyl)acetate] | 133 to 134
6 | CCC[C@H](NC(=O)[C@H](C)NC(=O)Cc1ccccc1)C(=O)OC [Example 209, Methyl N-[N-(Phenylacetyl)-L-alaninyl]-2-(S)-aminopentanoate] (HELM PEPTIDE1{[O=C(Cc1ccccc1)[*:2]].A.[Nva].[CO[*:1]]}$$$$V2.0) | 135 to 137
7 | O=C(CC1CCCC1)N[C@H](C(=O)N[C@H](CO)c1ccccc1)c1ccccc1 [Example 247, N-[N-(Cyclopentaneacetyl)-L-phenylglycinyl]-L-phenylglycinol] | 201.4
8 | CCOC(=O)[C@H](C)NC(=O)[C@@H](NC(=O)Cc1ccccc1)c1ccccc1 [Example 108, N-[N-(Phenylacetyl)-L-phenylglycinyl]-L-alanine Ethyl Ester] (HELM PEPTIDE1{[O=C(Cc1ccccc1)[*:2]].[Phg].A.[CCO[*:1]]}$$$$V2.0) | 208 to 210
9 | COC(=O)[C@H](Cc1ccccc1)NC(=O)[C@H](C)NC(=O)Cc1cccc([N+](=O)[O-])c1 [Example 75, N-[N-(3-Nitrophenylacetyl)-L-alaninyl]-L-phenylalanine Methyl Ester] | 154 to 158
10 | COC(=O)[C@H](CCCCNC(=O)OC(C)(C)C)NC(=O)[C@H](C)NC(=O)Cc1ccccc1 [Example 205, N-[N-(Phenylacetyl)-L-alaninyl]-Nε-(tert-butoxycarbonyl)-L-lysine Methyl Ester] (PhAc-Ala-Lys(Boc)-OMe) | 119 to 121
11 | COC(=O)[C@H](C)NC(=O)[C@H](C)NC(=O)Cc1ccccc1 [Example 200, N-[N-(Phenylacetyl)-L-alaninyl]-L-alanine Methyl Ester] (HELM PEPTIDE1{[O=C(Cc1ccccc1)[*:2]].A.A.[CO[*:1]]}$$$$V2.0) | 140.5 to 142
12 | CC[C@H](C)[C@H](NC(=O)Cc1cc(F)cc(F)c1)C(=O)N[C@H](C(=O)OC)c1ccccc1 [Example 255, N-[N-(3,5-Difluorophenylacetyl)-L-isoleucinyl]-L-phenylglycine Methyl Ester] | 228.8
13 | CCOC(=O)[C@H](C)NC(=O)[C@@H](NC(=O)CC(C)C)c1ccccc1 [Example 74, N-[N-(Isovaleryl)-L-phenylglycinyl]-L-alanine Ethyl Ester] (HELM PEPTIDE1{[CC(C)CC(=O)[*:2]].[Phg].A.[CCO[*:1]]}$$$$V2.0) | 198 to 201
14 | COC(=O)[C@@H](NC(=O)[C@H](C)NC(=O)[C@H](C)NC(=O)Cc1cc(F)cc(F)c1)c1ccccc1 [Example 112, N-[N-[N-(3,5-Difluorophenylacetyl)-L-alaninyl]-L-alaninyl]-L-phenylglycine Methyl Ester] | 243 to 245
15 | O=C(CC1CC1)N[C@H](C(=O)N[C@H](CO)c1ccccc1)c1ccccc1 [Example 246, N-[N-(Cyclopropaneacetyl)-L-phenylglycinyl]-L-phenylglycinol] | 202.5
16 | COC(=O)[C@@H](NC(=O)[C@@H](NC(=O)Cc1cc(F)cc(F)c1)c1ccccc1)c1ccccc1 [Example 199, N-[N-(3,5-Difluorophenylacetyl)-L-phenylglycinyl]-L-phenylglycine Methyl Ester] | 222.8
17 | C[C@H](NC(=O)Cc1cc(F)cc(F)c1)C(=O)NCC(=O)OCc1ccccc1 [Example 73, N-[N-(3,5-Difluorophenylacetyl)-L-alaninyl]glycine Benzyl Ester] | 167.5
18 | COC(=O)[C@H](Cc1cccs1)NC(=O)[C@H](C)NC(=O)Cc1cc(F)cc(F)c1 [Example 36, Methyl N-[N-(3,5-Difluorophenylacetyl)-L-alaninyl]-(S)-2-amino-3-(2-thienyl)propionate] | 145 to 147
19 | C[C@H](NC(=O)Cc1cc(F)cc(F)c1)C(=O)N[C@@H](C(=O)OC(C)(C)C)c1cccs1 [Example 179, tert-Butyl N-[N-(3,5-Difluorophenylacetyl)-L-alaninyl]-(S)-2-amino-2-(2-thienyl)acetate] | 117 to 118
20 | COC(=O)[C@@H](NC(=O)[C@H](C)NC(=O)Cc1cc(F)cc(F)c1)c1ccc2cc(OC)ccc2c1 [Example 182, Methyl N-[N-(3,5-Difluorophenylacetyl)-L-alaninyl]-(S)-2-amino-2-(6-methoxy-2-naphthyl)acetate] | 177 to 178
21 | COC(=O)[C@H](Cc1ccccc1)NC(=O)[C@H](C)NC(=O)Cc1ccccn1 [Example 132, N-[N-(2-Pyridylacetyl)-L-alaninyl]-L-phenylalanine Methyl Ester] | 137 to 139
